Source: US9205121B2, “Echinacea formulation” (Integria Healthcare (Australia) PTY LTD, priority 2004, dated 2015)

Columns and labels:
Assay in all cases: metabolism of 3 by recombinant human P450
Format in all cases: in vitro ADME
P450 1A1 = target: T1, P450 1A1 (Homo sapiens, UniProt P04798); settings: recombinant P450 1A1, preliminary screen
T1 construct: made in house; host or cells: Escherichia coli, bacterial membrane fraction, bicistronic vector
T1 sequence (P04798 1-512): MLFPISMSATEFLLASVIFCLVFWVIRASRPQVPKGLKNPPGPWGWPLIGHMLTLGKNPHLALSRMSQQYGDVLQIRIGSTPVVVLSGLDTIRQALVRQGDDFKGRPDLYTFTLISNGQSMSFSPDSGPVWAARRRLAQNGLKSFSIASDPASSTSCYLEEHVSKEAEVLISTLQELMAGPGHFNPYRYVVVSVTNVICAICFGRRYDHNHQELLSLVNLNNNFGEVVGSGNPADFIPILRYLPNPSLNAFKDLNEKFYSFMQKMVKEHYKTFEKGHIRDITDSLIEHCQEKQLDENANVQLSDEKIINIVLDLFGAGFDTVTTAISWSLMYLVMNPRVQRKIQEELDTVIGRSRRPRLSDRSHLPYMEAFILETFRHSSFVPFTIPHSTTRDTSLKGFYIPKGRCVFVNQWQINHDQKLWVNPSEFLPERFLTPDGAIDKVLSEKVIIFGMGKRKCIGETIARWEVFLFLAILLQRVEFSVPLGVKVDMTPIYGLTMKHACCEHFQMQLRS
Text: (§1) Recombinant P450s were co-expressed with hNPR in Escherichia coli according to the general procedures outlined previously. Recombinant P450 preparations were obtained from bacteria transformed with bicistronic expression vectors for P450s 1A1, 1A2, 2D6, 2E1 and 3A4 [6]; 1B1 [10]; 2A6 [8]; P450 2B6 [11]; 2C9 (wild type; P450 2C9*1) and 2C19 [12]; 3A5 and 3A7 [12] and 4A11 (D. Kim and F. P. Guengerich, unpublished data). cDNAs for P450s 2C8 and 2C18 were obtained from Prof D. J. Birkett (Flinders University of South Australia) and Prof. Philippe Beaune (INSERM U490, Universite Rene Descartes, Paris V, France) respectively, and bicistronic constructs in pCW were made according to previously published methods. Membranes from cells transformed with the monocistronic expression vector for recombinant human reductase, pCW′/hNPR, were used as a negative control. Expression of P450s and preparation of bacterial membrane fractions was done according to established methods.
(§2) Incubations (0.2 mL) with recombinant enzyme preparations were performed as described above except that bacterial membrane preparations were used at 0.1 μM P450. For P450s 3A4 and 3A5, reductase concentrations were supplemented to two fold the P450 concentration by addition of membranes from cells expressing reductase alone. For P450s 2C9 and 2C19, reductase concentrations were supplemented to five fold the P450 concentration. Negative controls contained bacterial membranes derived from cells transformed with the empty expression vector alone (“pCW”) or cells expressing only reductase (“hNPR”). Negative controls contained membranes added at total protein (“pCW”) or reductase “hNPR”) concentrations at the upper limit of those present in incubations with recombinant P450 preparations.
(§3) A preliminary screen was performed to investigate metabolism of 3 by recombinant human P450s.

P450 1B1 = target: T2, P450 1B1 (Homo sapiens, UniProt Q16678); settings: recombinant P450 1B1, preliminary screen
T2 construct: made in house; host or cells: Escherichia coli, bacterial membrane fraction, bicistronic vector
T2 sequence (Q16678 1-543): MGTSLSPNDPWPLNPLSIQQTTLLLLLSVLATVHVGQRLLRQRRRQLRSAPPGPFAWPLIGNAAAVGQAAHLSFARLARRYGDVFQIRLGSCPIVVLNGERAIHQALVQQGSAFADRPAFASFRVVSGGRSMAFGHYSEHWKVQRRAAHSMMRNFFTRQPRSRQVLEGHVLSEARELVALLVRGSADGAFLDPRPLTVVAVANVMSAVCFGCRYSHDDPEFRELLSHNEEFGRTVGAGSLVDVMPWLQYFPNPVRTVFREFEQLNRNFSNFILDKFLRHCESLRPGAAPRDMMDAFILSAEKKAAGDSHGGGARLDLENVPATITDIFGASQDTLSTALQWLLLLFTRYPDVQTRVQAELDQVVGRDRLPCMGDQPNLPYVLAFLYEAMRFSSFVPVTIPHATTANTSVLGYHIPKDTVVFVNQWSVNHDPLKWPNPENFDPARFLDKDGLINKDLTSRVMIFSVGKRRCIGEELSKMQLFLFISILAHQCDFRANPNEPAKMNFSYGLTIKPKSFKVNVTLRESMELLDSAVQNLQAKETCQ
Text: as §1, §2, §3

P450 3A5 = target: T3, P450 3A5 (Homo sapiens, UniProt P20815); settings: recombinant P450 3A5, preliminary screen
T3 construct: made in house; host or cells: Escherichia coli, bacterial membrane fraction, bicistronic vector; reductase topped up to two fold the P450 concentration
Text: as §1, §2, §3

P450 2D6 = target: T4, P450 2D6 (Homo sapiens, UniProt P10635); settings: recombinant P450 2D6, preliminary screen
T4 construct: made in house; host or cells: Escherichia coli, bacterial membrane fraction, bicistronic vector
Text: as §1, §2, §3

P450 3A4 = settings: recombinant P450 3A4, preliminary screen
Text: as §1, §2, §3

P450 2C9 = target: T5, P450 2C9 (Homo sapiens, UniProt P11712); settings: recombinant P450 2C9, preliminary screen
T5 construct: made in house; host or cells: Escherichia coli, bacterial membrane fraction, bicistronic vector; reductase topped up to five fold the P450 concentration
Text: as §1, §2, §3

P450 2A13 = target: T6, P450 2A13 (Homo sapiens, UniProt Q16696); settings: recombinant P450 2A13, preliminary screen
T6 construct: made in house; host or cells: Escherichia coli, bacterial membrane fraction
T6 sequence (Q16696 1-494): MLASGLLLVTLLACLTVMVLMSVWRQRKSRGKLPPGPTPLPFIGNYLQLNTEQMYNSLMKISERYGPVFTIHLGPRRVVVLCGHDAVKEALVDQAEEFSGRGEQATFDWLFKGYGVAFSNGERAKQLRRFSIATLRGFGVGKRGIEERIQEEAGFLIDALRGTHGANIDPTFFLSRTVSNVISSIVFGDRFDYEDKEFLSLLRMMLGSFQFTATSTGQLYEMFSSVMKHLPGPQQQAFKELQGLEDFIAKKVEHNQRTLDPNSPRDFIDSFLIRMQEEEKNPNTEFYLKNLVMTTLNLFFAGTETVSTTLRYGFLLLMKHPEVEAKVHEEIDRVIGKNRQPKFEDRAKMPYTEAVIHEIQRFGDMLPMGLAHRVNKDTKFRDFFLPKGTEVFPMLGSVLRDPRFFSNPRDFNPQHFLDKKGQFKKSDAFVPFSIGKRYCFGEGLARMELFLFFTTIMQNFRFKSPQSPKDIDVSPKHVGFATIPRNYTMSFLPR

Measured: consumption of 3

T4 sequence (P10635 whole entry): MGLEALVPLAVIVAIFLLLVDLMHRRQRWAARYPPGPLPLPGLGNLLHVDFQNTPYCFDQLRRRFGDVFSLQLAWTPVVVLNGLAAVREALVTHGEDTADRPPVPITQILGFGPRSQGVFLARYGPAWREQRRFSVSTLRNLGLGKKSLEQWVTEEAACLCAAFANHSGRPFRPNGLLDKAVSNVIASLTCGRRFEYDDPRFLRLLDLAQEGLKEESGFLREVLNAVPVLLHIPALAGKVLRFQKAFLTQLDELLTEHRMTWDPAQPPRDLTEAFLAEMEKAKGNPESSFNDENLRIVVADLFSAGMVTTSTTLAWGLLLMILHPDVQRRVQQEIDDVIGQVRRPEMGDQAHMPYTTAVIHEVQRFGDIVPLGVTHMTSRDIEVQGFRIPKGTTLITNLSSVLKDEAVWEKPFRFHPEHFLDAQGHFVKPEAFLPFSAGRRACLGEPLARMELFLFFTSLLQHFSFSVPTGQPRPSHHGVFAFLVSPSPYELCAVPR
T5 sequence (P11712 whole entry): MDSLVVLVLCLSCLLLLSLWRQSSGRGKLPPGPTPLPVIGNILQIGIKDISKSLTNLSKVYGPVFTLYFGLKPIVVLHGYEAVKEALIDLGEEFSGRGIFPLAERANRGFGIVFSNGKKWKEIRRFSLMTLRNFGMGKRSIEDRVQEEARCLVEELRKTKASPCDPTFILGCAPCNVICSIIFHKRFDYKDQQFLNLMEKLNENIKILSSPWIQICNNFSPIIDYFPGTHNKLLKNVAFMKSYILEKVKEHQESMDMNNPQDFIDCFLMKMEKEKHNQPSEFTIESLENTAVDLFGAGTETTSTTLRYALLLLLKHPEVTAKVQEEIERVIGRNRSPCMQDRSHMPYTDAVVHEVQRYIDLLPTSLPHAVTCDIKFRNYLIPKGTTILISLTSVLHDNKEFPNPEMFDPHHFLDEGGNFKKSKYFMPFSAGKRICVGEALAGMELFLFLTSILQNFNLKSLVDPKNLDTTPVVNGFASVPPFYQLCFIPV
T3 sequence (P20815 whole entry): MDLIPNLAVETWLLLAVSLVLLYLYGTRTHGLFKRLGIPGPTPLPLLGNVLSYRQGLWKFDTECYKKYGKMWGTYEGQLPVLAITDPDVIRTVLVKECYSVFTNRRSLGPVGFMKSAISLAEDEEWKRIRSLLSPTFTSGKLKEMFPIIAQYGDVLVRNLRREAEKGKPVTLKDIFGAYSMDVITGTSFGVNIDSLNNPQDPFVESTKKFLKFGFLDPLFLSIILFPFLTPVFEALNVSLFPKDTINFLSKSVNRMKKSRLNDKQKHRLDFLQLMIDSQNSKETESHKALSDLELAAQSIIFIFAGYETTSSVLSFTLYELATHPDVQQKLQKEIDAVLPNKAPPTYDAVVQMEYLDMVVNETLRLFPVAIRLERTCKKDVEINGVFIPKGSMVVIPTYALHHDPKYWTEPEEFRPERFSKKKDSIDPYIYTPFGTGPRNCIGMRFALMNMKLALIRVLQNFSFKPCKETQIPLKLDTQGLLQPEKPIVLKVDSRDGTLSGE

C/C=C\C=C/CC/C=C/C=C/C(=O)NCC(C)C [alkylamide 3, (2E,4E,8Z,10Z)—N-isobutyldodeca-2,4,8,10-tetraenamide]
observed: all assays above
